Measured values reported in PubChem BioAssay (NCI).
“And” between values parts separate entries of the source, which are not always exact repeats. Equal values may be shown once.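 48-hour exposure; five concentrations; linearly interpolated endpoints. GI50: concentration for 50% inhibition of growth. TGI marks complete inhibition of growth.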

How the values were obtained:
Test in all cases: NCI anticancer screen, dose series, 48 h
HS 578T breast = tested on: HS 578T breast
HCT-116 colon = tested on: HCT-116 colon
HOP-62 NSCLC = tested on: HOP-62 NSCLC
MDA-MB-435 = tested on: MDA-MB-435
SNB-19 CNS = tested on: SNB-19 CNS
OVCAR-4 ovarian = tested on: OVCAR-4 ovarian
PC-3 prostate = tested on: PC-3 prostate
OVCAR-8 ovarian = tested on: OVCAR-8 ovarian
U251 CNS = tested on: U251 CNS
NCI-H522 lung = tested on: NCI-H522 lung

Row | SMILES | GI50 (HS 578T breast) | TGI (HS 578T breast) | GI50 (HCT-116 colon) | TGI (HCT-116 colon) | GI50 (HOP-62 NSCLC) | TGI (HOP-62 NSCLC) | GI50 (MDA-MB-435) | TGI (MDA-MB-435) | GI50 (SNB-19 CNS) | TGI (SNB-19 CNS) | GI50 (OVCAR-4 ovarian) | TGI (OVCAR-4 ovarian) | GI50 (PC-3 prostate) | TGI (PC-3 prostate) | GI50 (OVCAR-8 ovarian) | TGI (OVCAR-8 ovarian) | GI50 (U251 CNS) | TGI (U251 CNS) | GI50 (NCI-H522 lung) | TGI (NCI-H522 lung)
1 | OCc1ccc(N2CCCC2c2ccccc2)cc1Cl (stereo not given) | 7.4 µM | 30.8 µM | 0.744 µM | 10.6 µM | 3.69 µM | 15.8 µM | 1.74 µM | 4.18 µM | 13.5 µM | > 84 µM | 1.39 µM | 14.2 µM | 8.41 µM | 29 µM | 8.18 µM | 30.3 µM | 2.35 µM | 13.3 µM | 5.18 µM | 18.6 µM
2 | COC1C=COC2(C)Oc3c(C)c(O)c4c(c3C2=O)/C(=N/C2CCC(O)OC2C)C=C(NC(=O)/C(C)=C\C(=O)C2CC2C(O)C(C)C(O)C(C)C(OC(C)=O)C1C)C4=O (stereo not given) |  | 8.38 µM |  | 3.56 µM |  | 8.75 µM |  | 3.64 µM |  | 11.6 µM |  | 10.6 µM |  | 6.56 µM |  | 3.89 µM |  | 8.3 µM |  | 2.79 µM
3 | O=C1c2cccnc2C(=O)c2c1c(C(=O)NCCCN1CCCCC1)c1ccccn21 | 2.59 µM | 9.75 µM | 0.337 µM | 1.22 µM | 1.08 µM | 3.18 µM | 0.403 µM | 1.52 µM | 1.12 µM | 2.57 µM | 0.31 µM | 1.32 µM | 1.49 µM | 7.21 µM | 0.75 µM | 5.58 µM | 1.42 µM | 3.21 µM | 1.08 µM | 3.45 µM
4 | O=C1c2ccccc2-c2cc([N+](=O)[O-])c([N+](=O)[O-])cc21 |  | > 100 µM |  | 6.23 µM |  | 3.13 µM |  | 3.27 µM |  | 3.36 µM |  | 3.31 µM |  | 2.93 µM |  | 3.57 µM |  | 2.93 µM |  | 2.99 µM
5 | COc1cccc(OC(=O)c2ccc(C(F)(F)F)nc2Nc2cc(Cl)ccc2C)c1 | 1.23 µM | 4.79 µM | 16.9 µM | 55.8 µM | 15.6 µM | 36.1 µM | 24.2 µM | 58.2 µM | > 100 µM | > 100 µM | > 100 µM | > 100 µM | 4.47 µM | > 100 µM | 24.2 µM | > 100 µM | 8.13 µM | > 100 µM | 10 µM | 71.3 µM
6 | Nc1nc(OCc2ccccc2)c2[nH]cnc2n1 | 18.9 µM and 18.3 µM | 49.5 µM and 57.5 µM | 34.7 µM and 34.5 µM | 209 µM and 137 µM | 42 µM and 23.5 µM | 209 µM and 70.9 µM | 41.1 µM and 26.9 µM | 143 µM | 86.2 µM and 33 µM | 400 µM and 213 µM | 41.2 µM and 43.4 µM | 365 µM and 528 µM | 53.7 µM | 628 µM | 64.8 µM and 63 µM | 400 µM and 492 µM | 37.9 µM and 35.9 µM | 400 µM and 204 µM | 23.6 µM and 16.5 µM | 135 µM and 69.4 µM
7 | CO/N=C(\COc1ccc2c(c1)[nH]c1ccccc12)c1ccc(F)cc1 | 23.4 µM | > 100 µM | 20.6 µM | > 100 µM | 6.44 µM | 26.7 µM | > 100 µM | > 100 µM | 30 µM | > 100 µM | 26.1 µM | > 100 µM | 30.6 µM | > 100 µM | 10.4 µM | > 100 µM | 25.4 µM | > 100 µM | > 100 µM | > 100 µM
